The target in this assay is bovine serum albumin (Bos taurus, UniProt P02769). The experiment in a line: HF field effect 1 to 170 MHz on separation of phenylacetic acid from BSA solution in dialysis module (HPLC). Format: in vitro ADME. The note with it: BSA 60 mg/ml, 1 mmol/l toxin. Here is the method:
Examination of the HF field effect in the frequency range 1 to 170 MHz.
The HF field was varied in subbands of 10 MHz in the frequency range 1-170 MHz and was compared with a control experiment without an HF field.
The quantitative determination of the phenylacetic acid was performed using HPLC.
The results of the experiments are collected in FIG. 4. […] The effect was particularly pronounced at 54.6% in the subband from 110 to 120 MHz.

bovine serum albumin, sequence (P02769 25-607): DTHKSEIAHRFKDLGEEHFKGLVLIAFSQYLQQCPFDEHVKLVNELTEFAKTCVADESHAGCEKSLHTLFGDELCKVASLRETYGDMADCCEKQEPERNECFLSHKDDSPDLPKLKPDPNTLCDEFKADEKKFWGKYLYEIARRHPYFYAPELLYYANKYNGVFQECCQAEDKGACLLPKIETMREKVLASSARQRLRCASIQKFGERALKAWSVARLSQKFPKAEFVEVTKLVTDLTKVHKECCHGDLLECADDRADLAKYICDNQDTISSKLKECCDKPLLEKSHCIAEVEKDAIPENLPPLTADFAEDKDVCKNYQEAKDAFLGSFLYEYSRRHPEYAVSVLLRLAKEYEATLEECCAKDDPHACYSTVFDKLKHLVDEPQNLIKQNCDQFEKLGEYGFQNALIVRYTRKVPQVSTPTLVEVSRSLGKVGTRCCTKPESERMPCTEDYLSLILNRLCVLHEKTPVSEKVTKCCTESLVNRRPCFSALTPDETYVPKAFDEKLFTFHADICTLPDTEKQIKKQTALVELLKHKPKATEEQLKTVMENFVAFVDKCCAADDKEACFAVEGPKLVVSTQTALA

In the case of `O=C(O)Cc1ccccc1` [phenylacetic acid], the “increase of separation rate under the influence of the HF field” value (HF field 1-170 MHz in subbands of 10 MHz vs control without HF field) is recorded as “at least 45.3%” and the “increase of separation rate under the influence of the HF field” value (subband from 110 to 120 MHz vs control without HF field) is 54.6%.

Source of the values: patent publication US10172994B2, “Hemodiafiltration method” (Fresenius Medical Care Deutschland GmbH, priority 2012, dated 2019).
